Experimental data: US10611740B2, “Aryl dihydro-2H-benzo[b][1,4]oxazine sulfonamide and related compounds for use as agonists of RORγ and the treatment of disease” (Lycera Corporation, priority 2015, dated 2020)

Columns and labels:
RORγ-LBD = molecular target: T1, RORγ-LBD (Homo sapiens, UniProt P51449); assay: RORγ-Ligand Binding Domain (LBD) TR-FRET Assay; assay type: biochemical;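 as to TR-FRET Assay Max Response: 665/615 nm ratio relative to signal without ursolic acid or compound set at 100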
T1 construct: made in house; host or cells: SF9 cells (baculovirus)
T1 sequence (P51449 269-508 limits assumed): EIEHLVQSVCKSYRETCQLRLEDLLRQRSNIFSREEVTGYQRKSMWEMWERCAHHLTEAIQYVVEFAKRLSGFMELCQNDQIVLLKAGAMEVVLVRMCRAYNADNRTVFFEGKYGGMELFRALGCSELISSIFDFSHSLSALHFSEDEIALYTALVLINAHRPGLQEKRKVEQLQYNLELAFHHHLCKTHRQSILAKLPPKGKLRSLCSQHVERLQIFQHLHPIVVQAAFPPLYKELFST
Outline: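 His-tagged RORγ-LBD from SF9 baculovirus lysate, ~3 nM final, in 50 mM Tris pH 7.0, 50 mM KCl, 1 mM EDTA, 0.1 mM DTT, 0.01% BSA. Biotinylated SRC1 LXXLL peptide at 200 nM final with 2 μM ursolic acid; TR-FRET read-out, 1% DMSO final.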

Gal4-RORγ-LBD = molecular target: T2, Gal4-RORγ-LBD (Homo sapiens, UniProt P51449); assay: Gal4-RORγ Luciferase Reporter Assay in HEK-293T Cells; assay type: cell-based; conditions: HEK-293 cells
T2 construct: expressed in transfected cells; host or cells: HEK-293 cells (pcDNA3.1neo plasmid)
T2 sequence (P51449 269-508 limits assumed): T1 sequence (P51449 269-508 limits assumed)
Outline: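 HEK-293 cells were transiently co-transfected with Gal4-RORγ-LBD and pGL4.31 Gal4-luciferase, with ursolic acid added at 2 μM final. Compounds were incubated overnight at 37° C. in 0.2% DMSO and luminescence read with One-Glo. Max Response is the upper plateau of a 4-parameter logistic fit, with signal lacking ursolic acid or compound set to 100.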

[1] = luciferase reporter, with 2 μM ursolic acid

Structure (SMILES) | EC50 (RORγ-LBD) | TR-FRET Assay Max Response (RORγ-LBD) | EC50 (Gal4-RORγ-LBD; 2 μM ursolic acid) | Gal4-RORγ Assay Max Response (Gal4-RORγ-LBD; 2 μM ursolic acid) | EC50 (Gal4-RORγ-LBD; [1]) | Gal4-RORγ Assay Max Response (Gal4-RORγ-LBD; [1])
COc1ccc(F)c(-c2ccc3c(c2)N(S(=O)(=O)c2cccc(C(F)(F)F)c2)C[C@H](CC(C)(C)C(=O)O)O3)c1F [Compound 32BK, (S)-3-(6-(2,6-difluoro-3-methoxyphenyl)-4-((3-(trifluoromethyl)phenyl)sulfonyl)-3,4-dihydro-2H-benzo[b][1,4]oxazin-2-yl)-2,2-dimethylpropanoic acid] | < 500 nM | *** (The symbol “***” indicates a value in the range of greater than 150 to 200) | < 500 nM | ** (The symbol “**” indicates a value in the range of greater than 90 to 150) | – | –
O=C(O)C1(C[C@H]2CN(S(=O)(=O)c3cccc(C(F)(F)F)c3)c3cc(-c4cccc(C(F)(F)F)n4)ccc3O2)CCC1 [Compound 32BL, (S)-l-((4-((3-(trifluoromethyl)-phenyl)sulfonyl)-6-(6-(trifluoro-methyl)pyridin-2-yl)-3,4-dihydro-2H-benzo[b][1,4]oxazin-2-yl)methyl)cyclobutane-1-carboxylic acid] | < 500 nM | ** (The symbol “**” indicates a value in the range of greater than 90 to 150) | < 500 nM | * (The symbol “*” indicates a value in the range of 25 to 90) | – | –
CC(C)(C[C@H]1CN(S(=O)(=O)c2cccc(C(F)(F)F)c2)c2cc(-c3c(F)ccc(F)c3F)ccc2O1)C(=O)O [Compound 32BM, (S)-2,2-dimethyl-3-(4-((3-(trifluoromethyl)phenyl)sulfonyl)-6-(2,3,6-trifluorophenyl)-3,4-dihydro-2H-benzo[b][1,4]oxazin-2-yl)propanoic acid] | < 500 nM | *** (The symbol “***” indicates a value in the range of greater than 150 to 200) | < 500 nM | ** (The symbol “**” indicates a value in the range of greater than 90 to 150) | – | –
COc1cc(F)cc(-c2ccc3c(c2)N(S(=O)(=O)c2cccc(C(F)(F)F)c2)C[C@H](CC(C)(C)C(=O)O)O3)c1F [Compound 32C, (S)-3-(6-(2,5-difluoro-3-methoxyphenyl)-4-((3-(trifluoromethyl)phenyl)sulfonyl)-3,4-dihydro-2H-benzo[b][1,4]oxazin-2-yl)-2,2-dimethylpropanoic acid] | < 500 nM | **** (The symbol “****” indicates a value greater than 200) | – | – | < 500 nM | ** (The symbol “**” indicates a value in the range of greater than 90 to 150)
CN(C)c1cccc(-c2ccc3c(c2)N(S(=O)(=O)c2cccc(C(F)(F)F)c2)C[C@H](CC(C)(C)C(=O)O)O3)n1 [Compound 32D, (S)-3-(6-(6-(dimethylamino)-pyridin-2-yl)-4-((3-(trifluoromethyl)phenyl)sulfonyl)-3,4-dihydro-2H-benzo[b][1,4]oxazin-2-yl)-2,2-dimethylpropanoic acid] | < 500 nM | **** (The symbol “****” indicates a value greater than 200) | – | – | < 500 nM | ** (The symbol “**” indicates a value in the range of greater than 90 to 150)
CC(C)(C[C@H]1CN(S(=O)(=O)c2cccc(C(F)(F)F)c2)c2cc(-c3cccc(C(F)(F)F)n3)ccc2O1)C(=O)O [Compound 32E, (S)-2,2-dimethyl-3-(4-((3-(trifluoromethyl)phenyl)sulfonyl)-6-(6-(trifluoromethyl)pyridin-2-yl)-3,4-dihydro-2H-benzo[b][1,4]oxazin-2-yl)propanoic acid] | < 500 nM | **** (The symbol “****” indicates a value greater than 200) | – | – | < 500 nM | ** (The symbol “**” indicates a value in the range of greater than 90 to 150)
CC(C)(C[C@H]1CN(S(=O)(=O)c2cccc(C(F)(F)F)c2)c2cc(-c3cccc(OC(F)(F)F)c3)ccc2O1)C(=O)O [Compound 32F, (S)-2,2-dimethyl-3-(6-(3-(trifluoromethoxy)phenyl)-4-((3-(trifluoromethyl)phenyl)sulfonyl)-3,4-dihydro-2H-benzo[b][1,4]oxazin-2-yl)propanoic acid] | < 500 nM | **** (The symbol “****” indicates a value greater than 200) | – | – | < 500 nM | ** (The symbol “**” indicates a value in the range of greater than 90 to 150)
CC(C)(C[C@H]1CN(S(=O)(=O)c2cccc(C(F)(F)F)c2)c2cc(-c3cccc(OC(F)F)c3)ccc2O1)C(=O)O [Compound 32G, (S)-3-(6-(3-(difluoromethoxy)-phenyl)-4-((3-(trifluoromethyl)-phenyl)sulfonyl)-3,4-dihydro-2H-benzo[b][1,4]oxazin-2-yl)-2,2-dimethylpropanoic acid] | < 500 nM | *** (The symbol “***” indicates a value in the range of greater than 150 to 200) | – | – | < 500 nM | ** (The symbol “**” indicates a value in the range of greater than 90 to 150)
CC(C)(C[C@H]1CN(S(=O)(=O)c2cccc(C(F)(F)F)c2)c2cc(-c3cccc(F)c3Cl)ccc2O1)C(=O)O [Compound 32H, (S)-3-(6-(2-chloro-3-fluorophenyl)-4-((3-(trifluoromethyl)phenyl)sulfonyl)-3,4-dihydro-2H-benzo[b][1,4]oxazin-2-yl)-2,2-dimethylpropanoic acid] | < 500 nM | **** (The symbol “****” indicates a value greater than 200) | – | – | 500 to 5000 nM | ** (The symbol “**” indicates a value in the range of greater than 90 to 150)
CC(C)(C[C@H]1CN(S(=O)(=O)c2cccc(C(F)(F)F)c2)c2cc(-c3cc(F)ccc3Cl)ccc2O1)C(=O)O [Compound 32I, (S)-3-(6-(2-chloro-5-fluorophenyl)-4-((3-(trifluoromethyl)phenyl)sulfonyl)-3,4-dihydro-2H-benzo[b][1,4]oxazin-2-yl)-2,2-dimethylpropanoic acid] | < 500 nM | **** (The symbol “****” indicates a value greater than 200) | – | – | 500 to 5000 nM | *** (The symbol “***” indicates a value in the range of greater than 150 to 200)
CC(C)(C[C@H]1CN(S(=O)(=O)c2cccc(C(F)(F)F)c2)c2cc(-c3cccc(F)c3F)ccc2O1)C(=O)O [Compound 32K, (S)-3-(6-(2,3-difluorophenyl)-4-((3-(trifluoromethyl)-phenyl)sulfonyl)-3,4-dihydro-2H-benzo[b][1,4]oxazin-2-yl)-2,2-dimethylpropanoic acid] | < 500 nM | **** (The symbol “****” indicates a value greater than 200) | – | – | < 500 nM | ** (The symbol “**” indicates a value in the range of greater than 90 to 150)
CC(C)(C[C@H]1CN(S(=O)(=O)c2cccc(C(F)(F)F)c2)c2cc(-c3cc(F)cc(F)c3)ccc2O1)C(=O)O [Compound 32N, (S)-3-(6-(3,5-difluorophenyl)-4-((3-(trifluoromethyl)phenyl)-sulfonyl)-3,4-dihydro-2H-benzo[b][1,4]oxazin-2-yl)-2,2-dimethylpropanoic acid] | < 500 nM | *** (The symbol “***” indicates a value in the range of greater than 150 to 200) | – | – | < 500 nM | ** (The symbol “**” indicates a value in the range of greater than 90 to 150)
CC(C)(C[C@H]1CN(S(=O)(=O)c2cccc(C(F)(F)F)c2)c2cc(-c3cccc(C(F)(F)F)c3)ccc2O1)C(=O)O [Compound 32O, (S)-2,2-dimethyl-3-(6-(3-(trifluoromethyl)phenyl)-4-((3-(trifluoromethyl)phenyl)sulfonyl)-3,4-dihydro-2H-benzo[b][1,4]oxazin-2-yl)propanoic acid] | < 500 nM | **** (The symbol “****” indicates a value greater than 200) | – | – | < 500 nM | * (The symbol “*” indicates a value in the range of 25 to 90)
CC(C)(CC[C@H]1CN(S(=O)(=O)c2cccc(C(F)(F)F)c2)c2cc(-c3cccc(C(F)(F)F)n3)ccc2O1)C(=O)O [Compound 32P, (S)-2,2-dimethyl-4-(4-((3-(trifluoromethyl)phenyl)sulfonyl)-6-(6-(trifluoromethyl)pyridin-2-yl)-3,4-dihydro-2H-benzo[b][1,4]oxazin-2-yl)butanoic acid] | < 500 nM | *** (The symbol “***” indicates a value in the range of greater than 150 to 200) | – | – | < 500 nM | ** (The symbol “**” indicates a value in the range of greater than 90 to 150)
COc1cc(OC)cc(-c2ccc3c(c2)N(S(=O)(=O)c2cccc(C(F)(F)F)c2)C[C@H](CC(C)(C)C(=O)O)O3)c1 [Compound 32Q, (S)-3-(6-(3,5-dimethoxyphenyl)-4-((3-(trifluoromethyl)phenyl)-sulfonyl)-3,4-dihydro-2H-benzo[b][1,4]oxazin-2-yl)-2,2-dimethylpropanoic acid] | < 500 nM | **** (The symbol “****” indicates a value greater than 200) | – | – | < 500 nM | ** (The symbol “**” indicates a value in the range of greater than 90 to 150)
